Test results reported in patent publication US12226405B2, “Compounds and compositions for inhibiting the activity of HIF2-alpha and their methods of use” (Novartis AG, priority 2020, dated 2025).

Test system: HIF2α-dependent transcription in 786-O-HRE-Luc cells
Experiment: In vitro cellular hypoxia response element (HRE) reporter gene assay (RGA) for HIF2α
Format: cell-based, human
Conditions: Homo sapiens, 24 hours incubation
Procedure, shortened: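 Renal carcinoma cells carrying a 4×HRE-driven PEST-destabilised firefly luciferase were treated a day after seeding with eleven 2-fold compound dilutions (0.1% DMSO) for 24 h at 37° C. BrightGlo luminescence, background-subtracted and expressed as % of DMSO control, was fitted four-parametrically for IC50.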

Question: For `FC(F)OC1=CC(C(F)(F)F)=CN2C[C@@]3(CCC(F)(F)c4c3ccnc4Cl)N=C12` [Example 31, (S)-1′-chloro-8-(difluoromethoxy)-8′,8′-difluoro-6-(trifluoromethyl)-7′,8′-dihydro-3H,6′H-spiro[imidazo[1,2-a]pyridine-2,5′-isoquinoline]], which IC50 is on record?
Answer: The IC50 was 246 nM.

Question: With `FC(F)OC1=CC(C(F)(F)F)=CN2C[C@@]3(CCOc4cc(C(F)(F)F)ccc43)N=C12` [Example 44, (S)-8′-(difluoromethoxy)-6′,7-bis(trifluoromethyl)-3′H-spiro[chroman-4,2′-imidazo[1,2-a]pyridine]] as the compound, how does the IC50 read?
Answer: Its IC50 is 112 nM.
